Like-named read-outs stand apart in the source and are kept apart here.
Columns and labels:
[1] = Stability in human hepatocytes; format: in vitro ADME; conditions: for half-life at 5 µM: t1/2, Human Hepatocytes; for half-life: 5 μM, 1 million cells/ml, 37° C., human hepatocytes
[2] = Stability in mouse hepatocytes; format: in vitro ADME
[3] = tested on: PANK2 silenced human neuroblastoma IMR32 cells (PANK2−/−); assay: Coenzyme A assay in PANK2 silenced cells (LC-MS quantification of free CoA); format: cell-based; conditions: compound added twice (24 h + 24 h), relative to 0.1% DMSO controls
Summary of the method: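 PANK2 shRNA-silenced IMR32 neuroblastoma cells were treated with compound (0.1% DMSO) for 24 h, then re-dosed with fresh compound for a further 24 h at 37 °C. TFA extracts of 1×10^6 cells were assayed for free CoA by LC-MS/MS (MRM 768.1→261.6/136.1). Results are given as fold change versus DMSO controls.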

[4] = Stability in human plasma; format: in vitro ADME; conditions: 37° C.; for t1/2, Human Plasma, Diastereoisomer B: 3 μM
Summary of the method: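 Test compound at 3 μM (0.1% DMSO) was incubated in mouse or human plasma at 37 °C and sampled in duplicate at 0, 10, 20, 30, 40 and 60 min. Reactions were stopped with acetonitrile/formic acid containing internal standard. Remaining parent was measured by UPLC-MS/MS without a calibration curve.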

[5] = t1/2, Mouse Hepatocytes, Diastereoisomer A
[6] = t1/2, Mouse Hepatocytes, Diastereoisomer B
[7] = human, plasma, Diastereoisomer A (upfield shift in 31P NMR), read-out: t1/2, Human Plasma, Diastereoisomer A (converted)
[8] = human, plasma, Diastereoisomer B, read-out: t1/2, Human Plasma, Diastereoisomer B (converted)
[9] = Diastereoisomer A (upfield shift in 31P NMR), read-out: t1/2, Human Hepatocytes, Diastereoisomer A (converted)
[10] = Diastereoisomer B, read-out: t1/2, Human Hepatocytes, Diastereoisomer B (converted)
[11] = Diastereoisomer A (upfield shift in 31P NMR), 5 μM, 1 million cells/ml, 37° C., mouse hepatocytes, read-out: t1/2, Mouse Hepatocytes, Diastereoisomer A (converted)
[12] = Diastereoisomer B, 5 μM, 1 million cells/ml, 37° C., mouse hepatocytes, read-out: t1/2, Mouse Hepatocytes, Diastereoisomer B (converted)
[13] = Diastereoisomer A (upfield shift in 31P NMR), read-out: t1/2, Human Plasma, Diastereoisomer A (converted)

COC(=O)CCNC(=O)[C@@H]1OP(=O)(OCOC(=O)C(C)(C)C)OCC1(C)C (stereo partly drawn) [Compound No. 65, (((4R)-4-((3-methoxy-3-oxopropyl)carbamoyl)-5,5-dimethyl-2-oxido-1,3,2-dioxaphosphinan-2-yl)oxy)methyl pivalate]
half-life at 5 µM ([1]; Diastereoisomer A): < 15 min
half-life at 5 µM ([1]; Diastereoisomer B): < 15 min
half-life at 5 µM [2, 5]: < 15 min
half-life at 5 µM [2, 6]: < 15 min
PANK2−/− CoA (Fold Increase): fold increase in Coenzyme A (CoA) levels relative to controls [3]: 222.6 Fold Increase
half-life at 3 µM [4, 7]: > 60 min
half-life at 3 µM [4, 8]: < 9.6 min

COC(=O)CCNC(=O)[C@@H]1OP(=O)(N[C@@H](C)C(=O)OC)OCC1(C)C (stereo partly drawn) [compound 5, methyl 3-((4R)-2-(((S)-1-methoxy-1-oxopropan-2-yl)amino)-5,5-dimethyl-2-oxido-1,3,2-dioxaphosphinane-4-carboxamido)propanoate]
half-life [1, 9]: 159 min
half-life [1, 10]: 60 min
half-life at 5 µM [2, 11]: 22.8 min
half-life at 5 µM [2, 12]: 18 min
PANK2−/− CoA (Fold Increase): fold increase in Coenzyme A (CoA) levels relative to controls [3]: 1.15 Fold Increase
half-life at 3 µM [4, 13]: > 60 min
t1/2, Human Plasma, Diastereoisomer B ([4]; Diastereoisomer B): >60 min

COC(=O)CCNC(=O)[C@@H]1OP(=O)(N[C@@H](C)C(=O)OCc2ccccc2)OCC1(C)C (stereo partly drawn) [Compound No. 11, Benzyl ((4R)-4-((3-methoxy-3-oxopropyl)carbamoyl)-5,5-dimethyl-2-oxido-1,3,2-dioxaphosphinan-2-yl)-L-alaninate]
half-life at 5 µM ([1]; Diastereoisomer A): 27.6 min
half-life at 5 µM ([1]; Diastereoisomer B): < 15 min
half-life at 5 µM [2, 5]: < 15 min
half-life at 5 µM [2, 6]: < 15 min
PANK2−/− CoA (Fold Increase): fold increase in Coenzyme A (CoA) levels relative to controls [3]: 0.99 Fold Increase

COC(=O)CCNC(=O)[C@@H]1OP(=O)(N[C@H](C)C(=O)OC)OCC1(C)C (stereo partly drawn) [compound 16, methyl 3-((4R)-2-(((R)-1-methoxy-1-oxopropan-2-yl)amino)-5,5-dimethyl-2-oxido-1,3,2-dioxaphosphinane-4-carboxamido)propanoate]
half-life [1, 9]: > 240 min
half-life [1, 10]: 80.4 min
half-life at 5 µM [2, 11]: 43.2 min
half-life at 5 µM [2, 12]: 15.6 min
PANK2−/− CoA (Fold Increase): fold increase in Coenzyme A (CoA) levels relative to controls [3]: 1.21 Fold Increase
half-life at 3 µM [4, 13]: > 60 min
t1/2, Human Plasma, Diastereoisomer B ([4]; Diastereoisomer B): >60 min

COC(=O)CCNC(=O)[C@@H]1OP(=O)(OCOC(=O)OC(C)C)OCC1(C)C (stereo partly drawn) [Compound No. 69, Methyl 3-((4R)-2-(((isopropoxycarbonyl)oxy)methoxy)-5,5-dimethyl-2-oxido-1,3,2-dioxaphosphinane-4-carboxamido)propanoate]
half-life at 5 µM ([1]; Diastereoisomer A): < 15 min
half-life at 5 µM ([1]; Diastereoisomer B): < 15 min
half-life at 5 µM [2, 5]: < 15 min
half-life at 5 µM [2, 6]: < 15 min
PANK2−/− CoA (Fold Increase): fold increase in Coenzyme A (CoA) levels relative to controls [3]: 181.1 Fold Increase
half-life at 3 µM [4, 7]: > 60 min
half-life at 3 µM [4, 8]: < 9.6 min

COC(=O)CCNC(=O)[C@@H]1OP(=O)(OCCSC(=O)C(C)(C)C)OCC1(C)C (stereo partly drawn) [Compound No. 2-133, Methyl 3-((4R)-5,5-dimethyl-2-oxido-2-(2-(pivaloylthio)ethoxy)-1,3,2-dioxaphosphinane-4-carboxamido)propanoate]
half-life at 5 µM ([1]; Diastereoisomer A): < 15 min
half-life at 5 µM ([1]; Diastereoisomer B): < 15 min
half-life at 5 µM [2, 5]: < 15 min
half-life at 5 µM [2, 6]: < 15 min
PANK2−/− CoA (Fold Increase): fold increase in Coenzyme A (CoA) levels relative to controls [3]: 89.53 Fold Increase

COC(=O)CCNC(=O)[C@@H]1OP(=O)(N[C@@H](C)C(=O)OCc2cc(C)cc(C)c2)OCC1(C)C (stereo partly drawn) [compound 3, (2S)-3,5-dimethylbenzyl 2-(((4R)-4-((3-methoxy-3-oxopropyl)carbamoyl)-5,5-dimethyl-2-oxido-1,3,2-dioxaphosphinan-2-yl)amino)propanoate]
half-life at 5 µM ([1]; Diastereoisomer A): < 15 min
half-life at 5 µM ([1]; Diastereoisomer B): < 15 min
half-life at 5 µM [2, 5]: < 15 min
half-life at 5 µM [2, 6]: < 15 min
PANK2−/− CoA (Fold Increase): fold increase in Coenzyme A (CoA) levels relative to controls [3]: 1.65 Fold Increase
half-life at 3 µM [4, 7]: > 60 min
half-life at 3 µM [4, 8]: > 60 min

COC(=O)CCNC(=O)[C@@H]1OP(=O)(NCCN2CCCC2)OCC1(C)C (stereo partly drawn) [compound 109, methyl 3-((4R)-5,5-dimethyl-2-oxido-2-((2-(pyrrolidin-1-yl)ethyl)amino)-1,3,2-dioxaphosphinane-4-carboxamido)propanoate]
half-life [1, 9]: > 240 min
half-life at 5 µM [2, 11]: 203 min
PANK2−/− CoA (Fold Increase): fold increase in Coenzyme A (CoA) levels relative to controls [3]: 1.87 Fold Increase
half-life at 3 µM [4, 13]: > 60 min

COC(=O)CCNC(=O)[C@@H]1OP(=O)(N[C@@H](C)C(=O)OCc2cccnc2)OCC1(C)C (stereo partly drawn) [compound 24, methyl 3-((4R)-5,5-dimethyl-2-oxido-2-(((S)-1-oxo-1-(pyridin-3-ylmethoxy)propan-2-yl)amino)-1,3,2-dioxaphosphinane-4-carboxamido)propanoate]
half-life at 5 µM ([1]; Diastereoisomer A): > 240 min
half-life at 5 µM ([1]; Diastereoisomer B): 191 min
half-life at 5 µM [2, 5]: < 15 min
half-life at 5 µM [2, 6]: < 15 min
PANK2−/− CoA (Fold Increase): fold increase in Coenzyme A (CoA) levels relative to controls [3]: 0.92 Fold Increase
half-life at 3 µM [4, 7]: 15.6 min
half-life at 3 µM [4, 8]: 49.2 min

COC(=O)CCNC(=O)[C@@H]1OP(=O)(NCCC(=O)OCc2ccccc2)OCC1(C)C (stereo partly drawn) [compound 117, benzyl 3-(((4R)-4-((3-methoxy-3-oxopropyl)carbamoyl)-5,5-dimethyl-2-oxido-1,3,2-dioxaphosphinan-2-yl)amino)propanoate]
half-life at 5 µM ([1]; Diastereoisomer A): 18.6 min
half-life at 5 µM ([1]; Diastereoisomer B): < 15 min
half-life at 5 µM [2, 5]: < 15 min
half-life at 5 µM [2, 6]: < 15 min
PANK2−/− CoA (Fold Increase): fold increase in Coenzyme A (CoA) levels relative to controls [3]: 1.06 Fold Increase
half-life at 3 µM [4, 7]: > 60 min
half-life at 3 µM [4, 8]: > 60 min

CCc1cc(C(=O)OCOP2(=O)OCC(C)(C)[C@H](C(=O)NCCC(=O)OC)O2)n(C)n1 (stereo partly drawn) [Compound No. 84, (((4R)-4-((3-methoxy-3-oxopropyl)carbamoyl)-5,5-dimethyl-2-oxido-1,3,2-dioxaphosphinan-2-yl)oxy)methyl 3-ethyl-1-methyl-1H-pyrazole-5-carboxylate]
half-life at 5 µM ([1]; Diastereoisomer A): < 15 min
half-life at 5 µM ([1]; Diastereoisomer B): < 15 min
half-life at 5 µM [2, 5]: < 15 min
half-life at 5 µM [2, 6]: < 15 min
PANK2−/− CoA (Fold Increase): fold increase in Coenzyme A (CoA) levels relative to controls [3]: 325.47 Fold Increase
half-life at 3 µM [4, 7]: > 60 min
half-life at 3 µM [4, 8]: 57.6 min

CC1(C)COP(=O)(O)O[C@H]1C(=O)NCCC(=O)O [compound 108, 3-((4R)-2-hydroxy-5,5-dimethyl-2-oxido-1,3,2-dioxaphosphinane-4-carboxamido)propanoic acid]
half-life at 5 µM ([1]; Diastereoisomer A): 15 min
half-life at 5 µM [2, 5]: 15 min
PANK2−/− CoA (Fold Increase): fold increase in Coenzyme A (CoA) levels relative to controls [3]: 1.07 Fold Increase
half-life at 3 µM [4, 7]: 49.8 min

CC(C)(C)C(=O)OCO[P@@]1(=O)OCC(C)(C)[C@H](C(=O)NCCC(=O)O)O1 [Compound No. 91, 3-((2S,4R)-5,5-dimethyl-2-oxido-2-((pivaloyloxy)methoxy)-1,3,2-dioxaphosphinane-4-carboxamido)propanoic acid]
half-life at 5 µM ([1]; Diastereoisomer A): 67.2 min
half-life at 5 µM [2, 5]: 18 min
PANK2−/− CoA (Fold Increase): fold increase in Coenzyme A (CoA) levels relative to controls [3]: 4.03 Fold Increase
half-life at 3 µM [4, 7]: > 60 min

COC(=O)CCNC(=O)[C@@H]1OP(=O)(N[C@@H](C)C(=O)OCCc2ccccc2)OCC1(C)C (stereo partly drawn) [Compound No. 2, Methyl 3-((4R)-5,5-dimethyl-2-oxido-2-(((S)-1-oxo-1-phenethoxypropan-2-yl)amino)-1,3,2-dioxaphosphinane-4-carboxamido)propanoate]
half-life at 5 µM ([1]; Diastereoisomer A): < 15 min
half-life at 5 µM ([1]; Diastereoisomer B): < 15 min
half-life at 5 µM [2, 5]: 23.4 min
half-life at 5 µM [2, 6]: 26.4 min
PANK2−/− CoA (Fold Increase): fold increase in Coenzyme A (CoA) levels relative to controls [3]: 6.80 Fold Increase
half-life at 3 µM [4, 7]: 57 min
half-life at 3 µM [4, 8]: 54 min

COC(=O)CCNC(=O)[C@@H]1OP(=O)(OCOC(=O)c2cncs2)OCC1(C)C (stereo partly drawn) [Compound No. 70, (((4R)-4-((3-methoxy-3-oxopropyl)carbamoyl)-5,5-dimethyl-2-oxido-1,3,2-dioxaphosphinan-2-yl)oxy)methyl thiazole-5-carboxylate]
PANK2−/− CoA (Fold Increase): fold increase in Coenzyme A (CoA) levels relative to controls [3]: 87.75 Fold Increase
half-life at 3 µM [4, 7]: < 9.6 min
half-life at 3 µM [4, 8]: < 9.6 min

COC(=O)CCNC(=O)[C@@H]1OP(=O)(N[C@@H](Cc2ccccc2)C(=O)OCc2ccccc2)OCC1(C)C (stereo partly drawn) [compound 10, benzyl ((4R)-4-((3-methoxy-3-oxopropyl)carbamoyl)-5,5-dimethyl-2-oxido-1,3,2-dioxaphosphinan-2-yl)-L-phenylalaninate]
half-life at 5 µM ([1]; Diastereoisomer A): < 15 min
half-life at 5 µM ([1]; Diastereoisomer B): < 15 min
half-life at 5 µM [2, 5]: < 15 min
half-life at 5 µM [2, 6]: < 15 min
PANK2−/− CoA (Fold Increase): fold increase in Coenzyme A (CoA) levels relative to controls [3]: 1.05 Fold Increase
